For 33 molecules, IC50, MIC and MEC results are on record in ChEMBL document CHEMBL5532669, “Guiding the Way: Traditional Medicinal Chemistry Inspiration for Rational Gram-Negative Drug Design” (J Med Chem, 2024).

Values after ≈ are worked out from the molar mass of the structure shown.

The subject of test [1] is Escherichia coli. As to the kind of experiment: Antibacterial activity against wild type Escherichia coli assessed as reduction in microbial growth measured after 24 hrs by broth microdilution method. For orientation: Dilution methods test growth across graded concentrations, often in twofold steps.
Test [2] deals with Escherichia coli. Put plainly: Antibacterial activity against Escherichia coli assessed as reduction in bacterial growth incubated for 24 hrs by broth micro-dilution method. The test is classed as functional.
Another test relates to Pseudomonas aeruginosa. Put plainly: Antibacterial activity against Pseudomonas aeruginosa ATCC 15442 assessed as bacterial growth inhibition measured after 18 hrs by CLSI protocol based two-fold serial microdilution method. The test is classed as functional.
The subject of test [3] is Acinetobacter baumannii. As to the kind of experiment: Antibacterial activity against Acinetobacter baumannii assessed as reduction in bacterial growth by broth microdilution method. It counts as functional.
In a further test the test system is Klebsiella pneumoniae. Put plainly: Antibacterial activity against Klebsiella pneumoniae assessed as reduction in bacterial growth by broth microdilution method. It counts as functional.
The subject of test [4] is Escherichia coli. Put plainly: Antibacterial activity against wild type Escherichia coli assessed as reduction in microbial growth measured after 24 hrs by broth microdilution method. This is another data set of the same source.
For test [5], the system named is Acinetobacter baumannii. Put plainly: Antibacterial activity against wild type Acinetobacter baumannii ATCC 17978 assessed as inhibition of microbial growth measured after 24 hrs by broth microdilution method. The test is classed as functional, organism-based. The note with it: ATCC 17978, 24 h.
In test [6] the test system is Escherichia coli. Put plainly: Antibacterial activity against wild type Escherichia coli assessed as reduction in bacterial growth inhibition incubated for 24 hrs by broth microdilution method. It counts as functional, organism-based.
Test [7] deals with Escherichia coli. As to the kind of experiment: Antibacterial activity against wild type Escherichia coli ATCC 25922 assessed as reduction in bacterial growth measured after 16 to 20 hrs by CLSI-based microbroth dilution method. It counts as functional, organism-based.
For test [8], the target named is T1, MexAB/OprM (Pseudomonas aeruginosa (strain ATCC 15692 / DSM 22644 / CIP 104116 / JCM14847 / LMG 12228 / 1C / PRS 101 / PAO1)) (UniProt P52477+P52002+Q51487). Put plainly: Inhibition of Pseudomonas aeruginosa MexAB-OprM P delta 6 pore assessed as minimal potentiating concentration for 4 fold reduction ciprofloxacin MIC. The test is classed as protein-complex assay.

Test [9] has as its target T1, MexAB/OprM (Pseudomonas aeruginosa (strain ATCC 15692 / DSM 22644 / CIP 104116 / JCM14847 / LMG 12228 / 1C / PRS 101 / PAO1)). As to the kind of experiment: Inhibition of Pseudomonas aeruginosa MexAB-OprM P delta 6 pore assessed as minimal potentiating concentration for 4 fold reduction cefotaxime MIC. The test is classed as protein-complex assay.
The target is the same in test [10]. Put plainly: Inhibition of Pseudomonas aeruginosa MexAB-OprM P delta 6 pore assessed as minimal potentiating concentration for 4 fold reduction Levofloxacin MIC. The test is classed as protein-complex assay.
For test [11] the target is unchanged. As to the kind of experiment: Inhibition of Pseudomonas aeruginosa MexAB-OprM P delta 6 pore assessed as minimal potentiating concentration for 4 fold reduction novobiocin MIC. The test is classed as protein-complex assay.
For test [12] the target is unchanged. Put plainly: Inhibition of Pseudomonas aeruginosa MexAB-OprM P delta 6 pore assessed as minimal potentiating concentration for 4 fold reduction carbenicillin MIC. It counts as protein-complex assay.
For a further test, the system named is Enterobacter cloacae. As to the kind of experiment: Antibacterial activity against Enterobacter cloacae assessed as reduction in bacterial growth by broth microdilution method. It counts as functional.

In general, IC50 refers to the point on the concentration scale where inhibition reaches its midpoint. Regarding `Nc1cccc(-c2ccc(N3C[C@H](CO)OC3=O)cc2F)n1`, in the test with Escherichia coli [1], the IC50 came out at 59 µM.
In general, MIC refers to the lowest concentration found to suppress growth. Take `Cc1c(CNC2CCCCC2)cc(-c2ccc(Cl)cc2)n1-c1ccc(Cl)cc1`: the MIC in the test on Escherichia coli [2] was more than 128 µg/mL; in the test with Pseudomonas aeruginosa it was more than 128 µg/mL; in the test on Acinetobacter baumannii [3], 64 µg/mL (≈ 155 µM); in the test with Klebsiella pneumoniae, more than 128 µg/mL.
Regarding `C[n+]1ccccc1-c1ccc(-c2ccc(N3C[C@H](CO)OC3=O)cc2F)cc1`, the half-maximal inhibitory concentration (IC50) in the test on Escherichia coli [4] was 15.4 µM.
The same measure, in the same setting: with `CC[n+]1ccc(-c2ccc(N3C[C@H](CO)OC3=O)cc2F)cc1` the figure was 15.4 µM.
Take `O=C1O[C@@H](CO)CN1c1ccc(-c2ccnc(N3CCCC3)c2)c(F)c1`: the 50% inhibitory concentration (IC50) with Acinetobacter baumannii [5] stood at 19 µM.
As for `O=C1O[C@@H](CO)CN1c1ccc(-c2ccccc2OC(F)(F)F)c(F)c1`, the IC50 with Escherichia coli [6] came to 23 µM.
With `O=C1O[C@@H](CO)CN1c1ccc(-c2cc[n+](Cc3ccccc3)cc2)c(F)c1`, in the test with Escherichia coli [4], the IC50 was found to be 15.4 µM.
Take `C[n+]1cccc(-c2ccc(-c3ccc(N4C[C@H](CO)OC4=O)cc3F)cc2)c1`: the IC50 in the test on Escherichia coli [4] was determined as 15.4 µM.
As for `COCc1ccc(N2C[C@H](CO)OC2=O)cc1F`, the IC50 with Escherichia coli [1] came out at 59 µM.
As to `O=C1O[C@@H](CO)CN1c1ccc(-c2ccc(-c3ccccn3)cc2)c(F)c1`, the half-inhibitory concentration (IC50) with Escherichia coli [7] worked out at 13.5 µM.
For the molecule `O=C1O[C@@H](CO)CN1c1ccc(-c2ccccc2)c(F)c1`, the IC50 in the test with Escherichia coli [7] worked out at 13.5 µM.
For `O=C1O[C@@H](CO)CN1c1ccc(-c2cc(Cl)cc(Cl)c2)c(F)c1`, the concentration for half-maximal inhibition (IC50) in the test on Escherichia coli [1] turned out to be 59 µM.
On to `COC(=O)c1cncc(-c2ccc(N3C[C@H](CO)OC3=O)cc2F)c1`, for which the IC50 in the test with Acinetobacter baumannii [5] was 19 µM.
On to `C[n+]1ccc(-c2ccc(-c3ccc(N4C[C@H](CO)OC4=O)cc3F)cc2)cc1`, for which, in the test with Escherichia coli [4], the 50% inhibitory concentration (IC50) was 15.4 µM.
Turning to `O=C(/C=C/c1ccccc1Cl)Nc1ccc(C2=NCCN2)c(C2=NCCN2)c1`, the MEC was determined as 12.5 µM in [8]; 100 µM in test [9]; 6.25 µM in [10]; 3.12 µM in [11]; 100 µM in test [12].
As for `Cc1c(CN(C)C(=O)/C=C/c2cnc3c(c2)CC(N)C(=O)N3)oc2ccccc12` (configuration not stated), the MIC with Escherichia coli [2] is 4 µg/mL (≈ 10.2 µM); in the test with Pseudomonas aeruginosa, more than 64 µg/mL; with Enterobacter cloacae, 8 µg/mL (≈ 20.5 µM); with Acinetobacter baumannii [3], 4 µg/mL (≈ 10.2 µM); in the test with Klebsiella pneumoniae, 8 µg/mL (≈ 20.5 µM).
On to `Cc1c(CNCCCCCCCCNC(=N)N)cc(-c2ccc(Cl)cc2)n1-c1ccc(Cl)cc1`, for which the MIC with Escherichia coli [2] was determined as 8 µg/mL (≈ 16 µM); with Pseudomonas aeruginosa, 64 µg/mL (≈ 128 µM); with Acinetobacter baumannii [3], 8 µg/mL (≈ 16 µM); in the test with Klebsiella pneumoniae it was 16 µg/mL (≈ 32 µM).
With `O=C1O[C@@H](CO)CN1c1ccc(-c2cccc(CO)c2)c(F)c1`, in the test on Escherichia coli [7], the 50% inhibitory concentration (IC50) stood at 13.5 µM.
Consider `Cc1cc(=O)n(C)c2c3c4c(cc12)c(C)cc(=O)n4C(CN)CO3` (configuration not stated), for which the MIC is 0.5 µg/mL (≈ 1.54 µM) in the test with Escherichia coli [2]; 16 µg/mL (≈ 49.2 µM) with Pseudomonas aeruginosa; 0.5 µg/mL (≈ 1.54 µM) with Enterobacter cloacae; 2 µg/mL (≈ 6.15 µM) in the test on Acinetobacter baumannii [3]; 1 µg/mL (≈ 3.07 µM) with Klebsiella pneumoniae.
In the case of `CC(C)[n+]1ccc(-c2ccc(N3C[C@H](CO)OC3=O)cc2F)cc1`, the IC50 in the test with Escherichia coli [7] is 13.5 µM.
For the molecule `CC(O)c1ccc(OCc2ccc(N3C[C@H](CO)OC3=O)cc2F)cc1` (some centres not stated), the concentration for half-maximal inhibition (IC50) with Escherichia coli [1] came to 59 µM.
Take `O=C(/C=C/c1ccccc1Cl)Nc1ccc(C2=NCCN2)cc1`: the MEC in test [8], in [9], in test [10], in [11] and in test [12] was more than 100 µM in each case.
Take `O=C1O[C@@H](CO)CN1c1ccc(-c2ccc(SC(F)(F)F)cc2)c(F)c1`: in the test on Escherichia coli [7], the IC50 was determined as 13.5 µM.
With `O=C1O[C@@H](CO)CN1c1ccc(-c2ccc(CO)cc2)c(F)c1`, in the test on Escherichia coli [7], the IC50 was determined as 13.5 µM.
With `COC(=O)c1ccccc1-c1ccc(N2C[C@H](CO)OC2=O)cc1F`, the IC50 with Escherichia coli [6] stood at 23 µM.
`CSCc1ccc(N2C[C@H](CO)OC2=O)cc1F`: in the test with Escherichia coli [1], the IC50 amounted to 59 µM.
Turning to `N/C(=N/O)c1ccc(-c2ccc(N3C[C@H](CO)OC3=O)cc2F)cc1`, the IC50 with Escherichia coli [7] worked out at 13.5 µM.
With `Cc1c(CN(C)C(=O)/C=C/c2cnc3c(c2)CCC(=O)N3)oc2ccccc12` [AFN-1252], the MIC in the test on Escherichia coli [2], in the test with Pseudomonas aeruginosa, in the test on Enterobacter cloacae, in the test with Acinetobacter baumannii [3] and in the test with Klebsiella pneumoniae was more than 32 µg/mL throughout.
In the case of `CCC[n+]1ccc(-c2ccc(N3C[C@H](CO)OC3=O)cc2F)cc1`, the IC50 with Escherichia coli [4] came out at 15.4 µM.
On the same count and under the same terms, with `C[n+]1ccc2cc(-c3ccc(N4C[C@H](CO)OC4=O)cc3F)ccc2c1` the figure was 15.4 µM.
Take `CC(C)c1ccc(-c2ccc(N3C[C@H](CO)OC3=O)cc2F)c(C(C)C)c1`: the IC50 in the test on Escherichia coli [6] worked out at 23 µM.
In the case of `Cc1c(CNC2CCC(N)CC2)cc(-c2ccc(Cl)cc2)n1-c1ccc(Cl)cc1` (configuration not stated), the minimum inhibitory concentration (MIC) in the test on Escherichia coli [2] stood at 8 µg/mL (≈ 18.7 µM); in the test with Pseudomonas aeruginosa it was 32 µg/mL (≈ 74.7 µM); in the test on Acinetobacter baumannii [3], 16 µg/mL (≈ 37.3 µM); in the test on Klebsiella pneumoniae, 16 µg/mL (≈ 37.3 µM).
As to `O=Cc1ccc(-c2ccc(N3C[C@H](CO)OC3=O)cc2F)cc1`, the IC50 in the test on Escherichia coli [7] was 13.5 µM.
